Source: US20050289663A1, “Method of constructing orchid haploid by treating unfertilized orchid flower with auxin and method of growing orchid” (SAPPORO BREWERIES LIMITED, priority 2002, published 2005)

Legend:
Zygopetalum = conditions: given to stigma of Zygopetalum; cited from earlier work
[1] = system: Bletilla. Brigantes “H5-11”; experiment: Auxin treatment of unfertilized orchid flowers: parthenogenetic seed formation, germination and ploidy check (flow cytometry, chromosome count); assay type: in vivo
Description: In the first embodiment, Bletilla. Brigantes “H5-11” was used. The supplied testing plants were grown in the conventional method. The blooming was affirmed, pollens were removed and a treatment of dropping of 10 micro liter was performed with the warmed lanolin paste which contains 2% of α-naphthaleneacetic acid at column using the syringe. Since two or more flowers might exist in the same inflorescence, the above-mentioned treatment was performed about for each one repeatedly five or more times. After individuals in which its ovary got fat are ripened completely (6 to 7 months after the treatment), then they were obtained, they were sterilized their surface for 5 minutes with 0.5% of sodium hydrochlorite solution, planted them on a medium in germfree container, and the germination was forced. After planting, when the number of planted seeds and the number of seed with embryo were observed, 11 seeds with embryo were observed out of 7000 of the planted total number of seeds. […] After plants originating in auxin treatment grew in the suitable size for sampling (1 to 2 months after germination), DNA contents of these plants originating in auxin treatment were measured by flow cytometry, then chromosomes were observed simultaneously and the number of chromosomes was investigated. The investigation was done by obtaining new leaf of seedling, plants treated with α-naphthaleneacetic acid (NAA) of the present invention were investigated and also plants originating in self-pollination were investigated as a comparison. FIG. 2 is views showing results of analysis based on flow cytometry. FIG. 3 is views showing observation results of chromosomes under a microscope.

O=C(O)Cc1cccc2ccccc12 [α-naphthaleneacetic acid]
induction of parthenogenesis (Zygopetalum): parthenogenesis has been induced | number of chromosomes of the plant originating in auxin treatment ([1]; 1 to 2 months after germination, microscope, 32 chromosomes for Bletilla Bringantes): 16 | DNA amount by flow cytometry: peak position versus plant originating in self-pollination ([1]; 1 to 2 months after germination, new leaf of seedling): half ploidy level | buds of plants originating in auxin treatment observed in the seeds with embryo ([1]; 2 weeks after planting of seeds, from the 11 seeds with embryo): 8 | DNA contents by flow cytometry: peak position versus plants originating in self-pollination ([1]; 5 to 6 months after germination): almost same position | number of seeds with embryo ([1]; out of 7000 of the planted total number of seeds, 10 micro liter lanolin paste containing 2% α-naphthaleneacetic acid dropped at column of unfertilized flower): 11
